{"source": "patent US20080253972A1", "about": "“Aqueous/alcoholic deodorant composition comprising a water-soluble zinc salt and salicylic acid” (priority 2006, published 2008)", "test_system": "Corynebacterium xerosis", "assay": "Quantitative determination of bactericidal activity with regard to microorganisms involved in axillary odors", "type": "cell-based", "settings": "24 hours contact, carrier gel pH 7, Log reduction classes", "text": "The test described here makes possible the quantitative determination of the bactericidal activity of an active principle (i.e.: zinc salicylate/salicylic acid or triclosan) conveyed in an appropriate carrier which is neutral with regard to the bacteria tested. The bacteria studied were microorganisms under optimum growth conditions, namely microorganisms of the Corynebacterium xerosis type (Institut Pasteur Collection No. 5216) cultured on a gradient of tryptocasein soybean agar.\nThe day before the test, 32 g of tryptocasein soybean broth was placed in a sample tube and incubated at 35° C. The day of the test, 4 g of the test composition was added and the mixture was homogenized using a Vortex render.\nA growth control without product was also prepared under the same conditions in order to confirm that the microorganisms are under favorable growth conditions throughout the duration of the test. […]\nThe colonies on the dishes comprising more than 20 and less than 200 colonies were counted. […]\nThe following two carrier gels A and B were prepared (amounts expressed as percentages by weight): […]\nThe bactericidal activity of each of formulations 9 and 10 (see below) with regard to the Corynebacterium xerosis strain was measured and compared to a formulation devoid of active principle.", "data": [{"smiles": "Oc1cc(Cl)ccc1Oc1ccc(Cl)cc1Cl", "note": "[Triclosan, 2,4,4′-trichloro-2′-hydroxydiphenyl ether]", "values": [{"measurement": "Effectiveness at 24 hours with respect to the gel devoid of active principle", "result": "Excellent"}]}]}
